Legend:
[1] = target: T1, Histone deacetylase 9 (Homo sapiens, UniProt Q9UKV0); experiment: Inhibition of HDAC9 (unknown origin) using HDAC class IIa substrate (trifluoroacetyl-lysine-AMC) as substrate by fluorescent method
[2] = target: T2, Protein deacetylase HDAC6 (Homo sapiens, UniProt Q9UBN7); experiment: Inhibition of HDAC6 (unknown origin) using p53 residues (379 to 382)(RHKK(Ac)-AMC) as substrate by fluorescent method
T2 sequence (Q9UBN7 whole entry): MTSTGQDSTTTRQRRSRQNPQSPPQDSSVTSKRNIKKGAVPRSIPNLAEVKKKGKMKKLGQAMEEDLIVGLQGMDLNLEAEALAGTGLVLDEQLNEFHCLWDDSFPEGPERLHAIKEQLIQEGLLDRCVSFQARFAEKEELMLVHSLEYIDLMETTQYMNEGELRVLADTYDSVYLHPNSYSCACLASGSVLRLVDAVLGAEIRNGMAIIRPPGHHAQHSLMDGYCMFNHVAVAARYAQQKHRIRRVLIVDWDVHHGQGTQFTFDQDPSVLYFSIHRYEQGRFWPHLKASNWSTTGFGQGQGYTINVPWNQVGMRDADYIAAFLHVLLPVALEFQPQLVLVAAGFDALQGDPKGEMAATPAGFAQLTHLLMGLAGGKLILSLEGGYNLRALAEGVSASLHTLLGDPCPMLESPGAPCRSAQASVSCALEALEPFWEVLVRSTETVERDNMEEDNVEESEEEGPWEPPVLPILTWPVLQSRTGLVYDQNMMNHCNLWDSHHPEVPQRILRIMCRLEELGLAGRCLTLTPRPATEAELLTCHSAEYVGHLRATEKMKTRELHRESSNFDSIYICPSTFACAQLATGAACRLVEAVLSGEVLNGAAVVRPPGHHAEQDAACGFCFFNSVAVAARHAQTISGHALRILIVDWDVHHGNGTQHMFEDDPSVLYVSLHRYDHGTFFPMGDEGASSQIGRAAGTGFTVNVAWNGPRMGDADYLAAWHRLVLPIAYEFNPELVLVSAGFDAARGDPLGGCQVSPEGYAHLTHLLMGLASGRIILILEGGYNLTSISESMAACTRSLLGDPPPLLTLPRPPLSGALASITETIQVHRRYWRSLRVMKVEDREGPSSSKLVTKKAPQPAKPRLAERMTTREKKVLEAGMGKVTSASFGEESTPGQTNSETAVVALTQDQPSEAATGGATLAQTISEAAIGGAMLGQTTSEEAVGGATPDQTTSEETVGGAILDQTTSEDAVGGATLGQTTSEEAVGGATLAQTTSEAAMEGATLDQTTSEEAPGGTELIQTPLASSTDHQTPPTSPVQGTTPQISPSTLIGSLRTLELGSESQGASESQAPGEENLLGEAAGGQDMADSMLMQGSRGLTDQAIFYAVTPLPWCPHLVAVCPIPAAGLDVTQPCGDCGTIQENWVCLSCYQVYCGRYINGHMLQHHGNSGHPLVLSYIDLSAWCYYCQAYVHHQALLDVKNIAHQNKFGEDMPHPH

[3] = target: T3, Polyamine deacetylase HDAC10 (Homo sapiens, UniProt Q969S8); experiment: Inhibition of HDAC10 (unknown origin) using p53 residues (379 to 382)(RHKK(Ac)-AMC) as substrate by fluorescent method
T3 sequence (Q969S8 whole entry): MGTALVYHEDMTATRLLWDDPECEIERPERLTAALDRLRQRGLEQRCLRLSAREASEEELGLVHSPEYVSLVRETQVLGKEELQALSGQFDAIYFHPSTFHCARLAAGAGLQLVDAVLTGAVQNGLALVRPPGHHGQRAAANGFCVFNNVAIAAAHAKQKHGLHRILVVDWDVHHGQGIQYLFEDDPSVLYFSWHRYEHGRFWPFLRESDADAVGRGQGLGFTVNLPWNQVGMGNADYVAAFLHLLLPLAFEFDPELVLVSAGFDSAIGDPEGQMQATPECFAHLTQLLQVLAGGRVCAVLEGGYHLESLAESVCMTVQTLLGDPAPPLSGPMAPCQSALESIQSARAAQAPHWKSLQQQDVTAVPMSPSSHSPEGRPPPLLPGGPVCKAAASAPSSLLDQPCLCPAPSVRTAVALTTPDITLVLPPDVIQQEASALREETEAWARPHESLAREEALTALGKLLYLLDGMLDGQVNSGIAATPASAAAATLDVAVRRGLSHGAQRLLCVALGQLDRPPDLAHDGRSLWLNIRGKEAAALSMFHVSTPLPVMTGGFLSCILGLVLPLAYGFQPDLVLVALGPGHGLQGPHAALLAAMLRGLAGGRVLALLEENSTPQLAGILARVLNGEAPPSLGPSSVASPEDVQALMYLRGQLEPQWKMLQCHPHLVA

[4] = target: Histone deacetylase 2 (Homo sapiens, UniProt Q92769); experiment: Inhibition of HDAC2 (unknown origin)
Sequence of Histone deacetylase 2 (Q92769 whole entry): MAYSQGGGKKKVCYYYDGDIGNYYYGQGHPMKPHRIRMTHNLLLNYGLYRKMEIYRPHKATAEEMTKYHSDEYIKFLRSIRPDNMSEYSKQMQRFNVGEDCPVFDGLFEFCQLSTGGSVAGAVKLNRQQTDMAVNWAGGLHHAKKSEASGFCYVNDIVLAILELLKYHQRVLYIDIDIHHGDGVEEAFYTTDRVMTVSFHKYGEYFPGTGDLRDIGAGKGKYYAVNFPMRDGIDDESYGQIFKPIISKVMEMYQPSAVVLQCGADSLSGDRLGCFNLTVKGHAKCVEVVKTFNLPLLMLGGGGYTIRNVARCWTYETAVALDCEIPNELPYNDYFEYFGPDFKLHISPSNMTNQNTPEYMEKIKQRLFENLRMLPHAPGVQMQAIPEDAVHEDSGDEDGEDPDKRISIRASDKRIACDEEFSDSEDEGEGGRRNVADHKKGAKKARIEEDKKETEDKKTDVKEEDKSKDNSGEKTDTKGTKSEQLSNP

[5] = target: Histone deacetylase 3 (Homo sapiens, UniProt O15379); experiment: Inhibition of HDAC3 (unknown origin)
Sequence of Histone deacetylase 3 (O15379 whole entry): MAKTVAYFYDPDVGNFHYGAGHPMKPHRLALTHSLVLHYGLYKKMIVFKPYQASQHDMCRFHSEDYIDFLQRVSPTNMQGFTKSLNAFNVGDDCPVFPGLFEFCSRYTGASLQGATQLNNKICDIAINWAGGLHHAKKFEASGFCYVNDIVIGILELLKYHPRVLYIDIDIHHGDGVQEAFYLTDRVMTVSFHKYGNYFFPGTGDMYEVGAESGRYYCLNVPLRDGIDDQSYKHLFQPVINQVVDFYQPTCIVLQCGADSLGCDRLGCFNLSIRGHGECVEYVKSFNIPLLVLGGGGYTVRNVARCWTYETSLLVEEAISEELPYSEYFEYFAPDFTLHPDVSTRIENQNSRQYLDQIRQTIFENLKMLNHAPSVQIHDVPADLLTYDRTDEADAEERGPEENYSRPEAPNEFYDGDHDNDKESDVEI

[6] = target: Histone deacetylase 1 (Homo sapiens, UniProt Q13547); experiment: Inhibition of human full length C-terminal Flag tagged HDAC1 expressed in HEK293T cells using H3K9-myristoyl peptide as substrate by HPLC method
Sequence of Histone deacetylase 1 (Q13547 whole entry): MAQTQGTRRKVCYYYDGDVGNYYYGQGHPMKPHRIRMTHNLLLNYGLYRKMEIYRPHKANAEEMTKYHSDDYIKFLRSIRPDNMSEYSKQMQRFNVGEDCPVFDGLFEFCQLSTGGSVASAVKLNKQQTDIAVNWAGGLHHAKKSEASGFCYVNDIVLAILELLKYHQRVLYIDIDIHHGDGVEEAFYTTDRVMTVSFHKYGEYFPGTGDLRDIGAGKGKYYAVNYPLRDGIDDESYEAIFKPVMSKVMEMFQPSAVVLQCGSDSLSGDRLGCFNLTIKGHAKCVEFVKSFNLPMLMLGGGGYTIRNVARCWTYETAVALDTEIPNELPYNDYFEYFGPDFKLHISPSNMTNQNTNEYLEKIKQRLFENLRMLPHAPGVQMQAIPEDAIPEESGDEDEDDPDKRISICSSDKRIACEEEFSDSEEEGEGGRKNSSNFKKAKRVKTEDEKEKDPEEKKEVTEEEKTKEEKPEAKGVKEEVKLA

[7] = target: Histone deacetylase 5 (Homo sapiens, UniProt Q9UQL6); experiment: Inhibition of HDAC5 (unknown origin)
Sequence of Histone deacetylase 5 (Q9UQL6 whole entry): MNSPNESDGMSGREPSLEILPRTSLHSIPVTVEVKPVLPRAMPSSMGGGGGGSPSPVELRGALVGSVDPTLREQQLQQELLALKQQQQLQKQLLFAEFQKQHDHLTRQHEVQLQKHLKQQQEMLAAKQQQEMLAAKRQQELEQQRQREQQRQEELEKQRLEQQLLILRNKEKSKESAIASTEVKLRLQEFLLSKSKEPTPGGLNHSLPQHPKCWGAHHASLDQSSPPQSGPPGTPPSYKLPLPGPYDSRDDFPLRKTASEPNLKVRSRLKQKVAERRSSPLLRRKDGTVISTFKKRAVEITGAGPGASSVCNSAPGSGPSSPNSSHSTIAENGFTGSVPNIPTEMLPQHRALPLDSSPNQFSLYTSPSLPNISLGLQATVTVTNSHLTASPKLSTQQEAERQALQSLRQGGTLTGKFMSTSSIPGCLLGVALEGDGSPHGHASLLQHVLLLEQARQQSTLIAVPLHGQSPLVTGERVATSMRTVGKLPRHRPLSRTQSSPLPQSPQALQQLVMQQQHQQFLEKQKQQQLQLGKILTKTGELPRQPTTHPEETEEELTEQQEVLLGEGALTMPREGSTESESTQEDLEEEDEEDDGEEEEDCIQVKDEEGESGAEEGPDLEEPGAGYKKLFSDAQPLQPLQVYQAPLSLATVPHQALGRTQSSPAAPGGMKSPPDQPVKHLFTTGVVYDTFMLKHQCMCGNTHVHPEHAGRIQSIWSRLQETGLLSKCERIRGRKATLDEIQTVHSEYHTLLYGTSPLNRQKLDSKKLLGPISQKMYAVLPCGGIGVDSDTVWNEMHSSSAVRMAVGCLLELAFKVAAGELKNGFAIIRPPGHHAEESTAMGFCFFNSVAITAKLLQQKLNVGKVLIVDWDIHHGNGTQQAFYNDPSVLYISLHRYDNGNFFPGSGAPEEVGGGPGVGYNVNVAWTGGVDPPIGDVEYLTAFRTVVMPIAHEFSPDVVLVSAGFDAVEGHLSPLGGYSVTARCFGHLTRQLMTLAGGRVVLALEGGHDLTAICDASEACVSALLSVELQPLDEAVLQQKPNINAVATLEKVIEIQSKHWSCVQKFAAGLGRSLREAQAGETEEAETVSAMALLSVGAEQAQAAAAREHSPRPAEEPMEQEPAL

[8] = target: T1, Histone deacetylase 9; experiment: Inhibition of HDAC9 (unknown origin)

Measured: IC50

T1 sequence (Q9UKV0 whole entry, the tested form may be a part): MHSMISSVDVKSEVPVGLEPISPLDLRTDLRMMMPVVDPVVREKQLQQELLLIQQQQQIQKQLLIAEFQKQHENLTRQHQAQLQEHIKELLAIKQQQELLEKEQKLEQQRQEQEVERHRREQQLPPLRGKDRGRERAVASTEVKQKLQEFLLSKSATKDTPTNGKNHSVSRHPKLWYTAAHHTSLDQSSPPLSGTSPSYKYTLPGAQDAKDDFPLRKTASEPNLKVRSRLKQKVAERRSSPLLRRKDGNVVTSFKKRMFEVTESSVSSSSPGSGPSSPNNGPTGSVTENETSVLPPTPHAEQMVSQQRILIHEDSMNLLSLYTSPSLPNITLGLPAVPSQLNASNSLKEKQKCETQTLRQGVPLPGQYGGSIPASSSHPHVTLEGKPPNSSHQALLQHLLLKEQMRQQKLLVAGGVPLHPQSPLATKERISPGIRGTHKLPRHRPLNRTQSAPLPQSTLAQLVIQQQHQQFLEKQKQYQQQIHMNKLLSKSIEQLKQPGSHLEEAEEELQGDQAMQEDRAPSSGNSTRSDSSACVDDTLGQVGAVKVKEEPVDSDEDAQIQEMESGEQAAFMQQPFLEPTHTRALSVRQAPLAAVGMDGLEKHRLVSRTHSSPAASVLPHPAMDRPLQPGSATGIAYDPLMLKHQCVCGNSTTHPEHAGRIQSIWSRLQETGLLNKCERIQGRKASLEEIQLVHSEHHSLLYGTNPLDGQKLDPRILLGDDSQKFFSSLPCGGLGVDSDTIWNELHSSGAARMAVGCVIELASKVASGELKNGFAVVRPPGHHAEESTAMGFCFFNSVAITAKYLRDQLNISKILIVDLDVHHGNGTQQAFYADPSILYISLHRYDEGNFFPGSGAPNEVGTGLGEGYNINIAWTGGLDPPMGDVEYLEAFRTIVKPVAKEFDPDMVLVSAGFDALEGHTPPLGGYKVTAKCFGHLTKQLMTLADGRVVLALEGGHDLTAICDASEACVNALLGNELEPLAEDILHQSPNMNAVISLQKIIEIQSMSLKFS

Cn1cc(-c2ccc(S(=O)(=O)n3ccc(/C=C/C(=O)Nc4ccccc4N)c3)cc2)cn1 [DOMATINOSTAT]
> 10 µM: [1] | [2] | [3]

CCCCCCCCCCCCCCCCNNC(=O)c1cccs1
> 10 µM: [4] | [5] | [6] | [7] | [8]

From ChEMBL document CHEMBL4765362, “Thirty Years of HDAC Inhibitors: 2020 Insight and Hindsight” (J Med Chem, 2020)
